Data on eight compounds can be found in PubChem BioAssay (NCI).

Test systems include ACHN renal; BT-549 breast; DLD-1 colon; EKVX NSCLC; HOP-62 NSCLC; LXFL 529 NSCLC; NCI-H23 lung; PC-3 prostate; SF-539 CNS; SK-MEL-28 melanoma.
Holding throughout (assay): NCI anticancer screen, dose series, 48 h

Values joined by “and” are separate entries in the source; they are usually repeats but may differ in a detail not shown here. Equal values may be shown once.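 Cells were grown in 96-well plates and exposed to each compound for 48 hours at five concentrations; endpoints were interpolated linearly between bracketing concentrations, or set to the highest concentration if not reached. Here, GI50 denotes the concentration required for 50% inhibition of growth. TGI: total growth inhibition.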

With `CCCCCCCCCCCCCCCCSS(C)(=O)=O`, the TGI is 32.3 µM in the assay on ACHN renal; above 100 µM in the assay on BT-549 breast; 37.7 µM in the assay on DLD-1 colon; above 100 µM in the assay on EKVX NSCLC; above 100 µM in the assay with HOP-62 NSCLC; 26.3 µM in the assay on LXFL 529 NSCLC. Besides, the TGI was above 75.8 µM in the assay on NCI-H23 lung, above 100 µM in the assay on PC-3 prostate, above 56.4 µM with SF-539 CNS and 25.4 µM in the assay on SK-MEL-28 melanoma.
As to `CS(=O)(=O)OCCCCOS(C)(=O)=O`, the GI50 is 354 µM in the assay with ACHN renal; above 250 µM in the assay on BT-549 breast; above 1000 µM in the assay on EKVX NSCLC; 492 µM in the assay on HOP-62 NSCLC; 685 µM in the assay on NCI-H23 lung; above 1000 µM with PC-3 prostate. In addition, the GI50 in the assay on SF-539 CNS is 437 µM; with SK-MEL-28 melanoma, 980 µM. Also, the TGI is 250 µM and > 1000 µM in the assay on ACHN renal; above 1000 µM with BT-549 breast; above 236 µM in the assay with DLD-1 colon; above 1000 µM in the assay on EKVX NSCLC; 244 µM and 983 µM with HOP-62 NSCLC; above 250 µM in the assay with LXFL 529 NSCLC. Besides, the TGI was 249 µM and > 1000 µM with NCI-H23 lung; 250 µM and > 1000 µM in the assay with PC-3 prostate; 250 µM and > 1000 µM with SF-539 CNS; 232 µM and > 1000 µM with SK-MEL-28 melanoma.
Consider `COc1ccc2c(c1)[n+]([O-])c(/C(C)=N/NC(N)=S)c(C)[n+]2[O-]`, for which the TGI in the assay with ACHN renal, in the assay on BT-549 breast, in the assay on DLD-1 colon, with EKVX NSCLC, in the assay with HOP-62 NSCLC and in the assay on LXFL 529 NSCLC was above 100 µM each time. The TGI was above 100 µM in the assay with NCI-H23 lung, above 100 µM in the assay on PC-3 prostate, 97.9 µM in the assay with SF-539 CNS and above 100 µM in the assay on SK-MEL-28 melanoma.
For `Cc1cc(Cl)ccc1NC(=O)C1C(=O)C(=O)N(c2ccc(Cl)cc2C)C1=O` (stereo unspecified), the TGI with ACHN renal, in the assay with DLD-1 colon, with EKVX NSCLC, in the assay with HOP-62 NSCLC, with LXFL 529 NSCLC and in the assay on NCI-H23 lung was above 100 µM throughout. For the same compound, the TGI in the assay with SF-539 CNS and in the assay on SK-MEL-28 melanoma was above 100 µM throughout.
On to `C/C(=N\NC(=O)C[n+]1ccccc1)c1sc(-c2nc(C)c(/C(C)=N/NC(=O)C[n+]3ccccc3)s2)nc1C`, for which the TGI with ACHN renal, with DLD-1 colon, with EKVX NSCLC, in the assay with HOP-62 NSCLC, in the assay with LXFL 529 NSCLC and in the assay with NCI-H23 lung was above 100 µM in each case. Also, the TGI in the assay on SF-539 CNS and in the assay with SK-MEL-28 melanoma was above 100 µM in each case.
`CC[C@@]1(O)C(=O)OCc2c1cc1n(c2=O)Cc2cc3c([N+](=O)[O-])c(O)ccc3nc2-1`: the GI50 with ACHN renal is 0.051 µM; in the assay with DLD-1 colon, 9.41 µM; in the assay on EKVX NSCLC, 13.3 µM; in the assay on HOP-62 NSCLC, 0.026 µM; with LXFL 529 NSCLC, 4.33 µM; with NCI-H23 lung, 0.0821 µM. Also, the GI50 in the assay with SF-539 CNS was 0.0449 µM; with SK-MEL-28 melanoma it was 2.75 µM. Besides, the TGI in the assay with ACHN renal is 0.611 µM; in the assay with DLD-1 colon, above 100 µM; with EKVX NSCLC it was above 100 µM; with HOP-62 NSCLC, 0.0964 µM; in the assay on LXFL 529 NSCLC it was above 100 µM; in the assay with NCI-H23 lung, 0.636 µM. Besides, the TGI was 0.357 µM in the assay on SF-539 CNS and 35.5 µM with SK-MEL-28 melanoma.
Regarding `CC1OC(OC23C(=O)CC(C)(O)CC2(O)C=CC2=C3C(=O)c3ccc(C4CC(OC5CCC(OC6CC(O)C(O)C(C)O6)C(C)O5)C(O)C(C)O4)c(O)c3C2=O)CCC1O` (stereo unspecified), the TGI is 31.4 µM and 30.8 µM in the assay with ACHN renal; 26.8 µM and 23.8 µM in the assay with DLD-1 colon; 32.7 µM and 31.7 µM with EKVX NSCLC; 79.4 µM and 41.4 µM in the assay on HOP-62 NSCLC; 28.8 µM and 23.9 µM in the assay with LXFL 529 NSCLC; 33.1 µM and 30.7 µM in the assay on NCI-H23 lung. In addition, the TGI in the assay with SF-539 CNS was 31.8 µM and 31.4 µM; with SK-MEL-28 melanoma, 29 µM and 27.3 µM.
As to `Cc1ccc2oc(=O)cc(CC(=O)O)c2c1`, the TGI in the assay on ACHN renal, in the assay with DLD-1 colon, in the assay on EKVX NSCLC, in the assay on HOP-62 NSCLC, in the assay on LXFL 529 NSCLC and in the assay with NCI-H23 lung was above 100 µM each time. In addition, the TGI in the assay on SF-539 CNS and with SK-MEL-28 melanoma was above 100 µM throughout.
